Where two headings read alike, the source gives them in different places. *1 amine or outer side, *2 acyl side, *3 side chain or, on linkers, in order; H or OH if unused. Where a SMILES comes first, the peptide text is derived from it. [ ]: non-standard residue; d: D form. The star is where a group is joined. X10 = O=C([C@H](Cc1ccccc1)N(CCCc1ccccc1)[*:1])[*:2]; X14 = O=C([C@H](Cc1ccccc1)N(CC1CCCCC1)CC1CCCCC1)*; X23 = O=C([C@H](Cc1ccccc1)N(CCC1CCCC1)[*:1])[*:2]; X24 = CC(C)CCN([C@@H](Cc1ccccc1)C(=O)[*:2])[*:1]; X22 = CCCCCN([C@@H](CCc1ccccc1)C(=O)[*:2])[*:1]; X3 = CCCCCCCN([C@@H](Cc1ccccc1)C(=O)[*:2])[*:1]; X16 = CCCCCN([C@@H](Cc1ccccc1)C(=O)[*:2])[*:1]; X17 = CSCCCN([C@@H](Cc1ccccc1)C(=O)[*:2])[*:1]; X15 = CCCCN([C@@H](Cc1ccccc1)C(=O)[*:2])[*:1]; Butanoyl(2-OPh) = CCC(Oc1ccccc1)C(=O)*; X4 = CCCCCN1Cc2ccccc2C[C@H]1C(=O)*; Cha = N[C@@H](CC1CCCCC1)C(=O)O

For this assay, the target named is T1, thrombin receptor (Homo sapiens, UniProt P25116).
T1 construct: washed human platelets are prepared from blood drawn from healthy volunteers; endogenous in cells; host or cells: washed human platelets from healthy volunteers
T1 sequence (P25116 22-425): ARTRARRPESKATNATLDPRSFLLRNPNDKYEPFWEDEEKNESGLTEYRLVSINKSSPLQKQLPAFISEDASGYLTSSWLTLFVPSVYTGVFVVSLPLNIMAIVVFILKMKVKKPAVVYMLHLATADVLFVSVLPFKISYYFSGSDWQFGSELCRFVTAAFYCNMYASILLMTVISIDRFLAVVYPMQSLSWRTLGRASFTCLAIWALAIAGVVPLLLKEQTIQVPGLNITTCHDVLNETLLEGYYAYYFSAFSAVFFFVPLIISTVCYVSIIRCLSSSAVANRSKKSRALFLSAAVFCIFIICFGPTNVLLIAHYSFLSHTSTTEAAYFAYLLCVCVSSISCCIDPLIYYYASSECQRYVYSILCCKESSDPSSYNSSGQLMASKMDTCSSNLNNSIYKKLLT
The assay is described as follows: Platelet aggregation assay for thrombin receptor antagonist activity (washed human platelets stimulated with α-thrombin). In kind it is cell-based. Here is the method:
The compounds of the present invention may be tested for thrombin receptor antagonist activity by using a platelet aggregation assay. In this assay, washed human platelets are prepared from blood drawn from healthy volunteers who have not ingested any medications for two weeks prior to donation. Blood is drawn into 12.5% (vol/vol) ACD (85 mM sodium citrate, 111 mM dextrose, 71 mM citric acid) containing 0.1% (vol/vol) PGI2 (0.05 mg/mL PGI2, 100 mM Tris, pH 12). Platelet-rich plasma was obtained by centrifugation at 160×g for 20 minutes. The platelets were pelleted by centrifugation at 760×g for 10 minutes and resuspended in CGS (13 mM trisodium citrate, 120 mM sodium chloride, 30 mM dextrose, pH 7.0) containing 0.1% (vol/vol) PGI2, repelleted and resuspended in Tyrodes buffer (10 mM Hepes, 12 mM sodium bicarbonate, 138 mM sodium chloride, 5.5 mM glucose, 2.9 mM potassium chloride, 1.0 mM calcium chloride, pH 7.4) and stored at 37° C. Approximately 0.4-10 nM α-thrombin is used to stimulate platelet aggregation in control reactions which are monitored by aggregometry using an aggregometer. Candidate antagonists are added to the platelet mixture followed by the addition of thrombin in order to assess their ability to prevent thrombin-mediated aggregation.
Platelet aggregation can also be measured with washed platelets in 96-well microtiter plates as described in Fratantoni, J. C. et al., Am. J. Clin. Pathol. 94:613-617 (1990). The ability of the antagonists to block the thrombin receptor was assessed in this assay using various concentrations of antagonists. The concentration at which 50% inhibition of platelet aggregation is achieved is defined as IC50.

[1] abbreviates: washed human platelets, thrombin-mediated aggregation, read-out: IC50 (concentration at which 50% inhibition of platelet aggregation is achieved).

In the case of `CC(C)CCN[C@@H](Cc1ccccc1)C(=O)N[C@@H](CC1CCCCC1)C(=O)N[C@@H](CC1CCCCC1)C(=O)N[C@@H](CCCNC(=N)N)C(=O)N[C@@H](CCCCN)C(=O)N1CCC[C@H]1C(=O)N[C@@H](CC(N)=O)C(=O)N[C@@H](CC(=O)O)C(=O)N[C@@H](CCCCN)C(N)=O` [Compound 1] (H-[X24][Cha][Cha]RKPNDK-NH2), under setting [1], the IC50 is 5 µM.
Regarding `CSCCCN[C@@H](Cc1ccccc1)C(=O)N[C@@H](CC1CCCCC1)C(=O)N[C@@H](CC1CCCCC1)C(=O)N[C@@H](CCCNC(=N)N)C(=O)N[C@@H](CCCCN)C(=O)N1CCC[C@H]1C(=O)N[C@@H](CC(N)=O)C(=O)N[C@@H](CC(=O)O)C(=O)N[C@@H](CCCCN)C(N)=O` [Compound 2] (H-[X17][Cha][Cha]RKPNDK-NH2), under setting [1], the IC50 amounted to 10 µM.
On the same count and under the same terms, the same measure for `CCCCCCCN[C@@H](Cc1ccccc1)C(=O)N[C@@H](CC1CCCCC1)C(=O)N[C@@H](CC1CCCCC1)C(=O)N[C@@H](CCCNC(=N)N)C(=O)N[C@@H](CCCCN)C(=O)N1CCC[C@H]1C(=O)N[C@@H](CC(N)=O)C(=O)N[C@@H](CC(=O)O)C(=O)N[C@@H](CCCCN)C(N)=O` [Compound 3] (H-[X3][Cha][Cha]RKPNDK-NH2): 10 µM.
Still for that read-out and setting: the same measure for `CCCCN[C@@H](Cc1ccccc1)C(=O)N[C@@H](CC1CCCCC1)C(=O)N[C@@H](CC1CCCCC1)C(=O)N[C@@H](CCCNC(=N)N)C(=O)N[C@@H](CCCCN)C(=O)N1CCC[C@H]1C(=O)N[C@@H](CC(N)=O)C(=O)N[C@@H](CC(=O)O)C(=O)N[C@@H](CCCCN)C(N)=O` [Compound 4] (H-[X15][Cha][Cha]RKPNDK-NH2): 5 µM.
As for `CCCCCN[C@@H](Cc1ccccc1)C(=O)N[C@@H](CC1CCCCC1)C(=O)N[C@@H](CC1CCCCC1)C(=O)N[C@@H](CCCNC(=N)N)C(=O)N[C@@H](CCCCN)C(=O)N1CCC[C@H]1C(=O)N[C@@H](CC(N)=O)C(=O)N[C@@H](CC(=O)O)C(=O)N[C@@H](CCCCN)C(N)=O` [Compound 5] (H-[X16][Cha][Cha]RKPNDK-NH2), the IC50 under setting [1] stood at 2.5 µM.
Consider `N=C(N)NCCC[C@H](NC(=O)[C@H](CC1CCCCC1)NC(=O)[C@H](CC1CCCCC1)NC(=O)[C@H](Cc1ccccc1)NCCC1CCCC1)C(=O)N[C@@H](CCCCN)C(=O)N1CCC[C@H]1C(=O)N[C@@H](CC(N)=O)C(=O)N[C@@H](CC(=O)O)C(=O)N[C@@H](CCCCN)C(N)=O` [Compound 6] (H-[X23][Cha][Cha]RKPNDK-NH2), for which the IC50 is 10 µM.
The same measure, in the same setting: the same measure for `N=C(N)NCCC[C@H](NC(=O)[C@H](CC1CCCCC1)NC(=O)[C@H](CC1CCCCC1)NC(=O)[C@H](Cc1ccccc1)NCCCc1ccccc1)C(=O)N[C@@H](CCCCN)C(=O)N1CCC[C@H]1C(=O)N[C@@H](CC(N)=O)C(=O)N[C@@H](CC(=O)O)C(=O)N[C@@H](CCCCN)C(N)=O` [Compound 7] (H-[X10][Cha][Cha]RKPNDK-NH2): 5 µM.
Regarding `N=C(N)NCCC[C@H](NC(=O)[C@H](CC1CCCCC1)NC(=O)[C@H](CC1CCCCC1)NC(=O)[C@H](Cc1ccccc1)N(CC1CCCCC1)CC1CCCCC1)C(=O)N[C@@H](CCCCN)C(=O)N1CCC[C@H]1C(=O)N[C@@H](CC(N)=O)C(=O)N[C@@H](CC(=O)O)C(=O)N[C@@H](CCCCN)C(N)=O` [Compound 8] (X14-[Cha][Cha]RKPNDK-NH2), the IC50 under setting [1] worked out at 5 µM.
`CCCCCN[C@@H](CCc1ccccc1)C(=O)N[C@@H](CC1CCCCC1)C(=O)N[C@@H](CC1CCCCC1)C(=O)N[C@@H](CCCNC(=N)N)C(=O)N[C@@H](CCCCN)C(N)=O` [Compound 9] (H-[X22][Cha][Cha]RK-NH2): under setting [1], the IC50 was 15 µM.
For `CCC(Oc1ccccc1)C(=O)N[C@@H](CC1CCCCC1)C(=O)N[C@@H](CC1CCCCC1)C(=O)N[C@@H](CCCNC(=N)N)C(=O)N[C@@H](CCCCN)C(N)=O` (stereo partly drawn) [Compound 10, 2-Phenoxybutyryl-Cha-Cha-Arg-Lys-NH2] ({Butanoyl(2-OPh)}-[Cha][Cha]RK-NH2), the IC50 under setting [1] turned out to be 10 µM.
Same read-out and setting: the same measure for `CCCCCN1Cc2ccccc2C[C@H]1C(=O)N[C@@H](CC1CCCCC1)C(=O)N[C@@H](CC1CCCCC1)C(=O)N[C@@H](CCCNC(=N)N)C(=O)N[C@@H](CCCCN)C(N)=O` [Compound 11, (N-n-pentyl-Tic)-Cha-Cha-Arg-Lys-NH2] (X4-[Cha][Cha]RK-NH2): 2.5 µM.

The values above are taken from US5866681A, “Thrombin receptor antagonists” (priority 1995, dated 1999).
